Data: US20090076130A1, “COMPOUNDS FOR THE INHIBITION OF HISTONE DEACETYLASE” (NATUREWISE BIOTECH & MEDICALS CORPORATION, priority 2007, published 2009)

Experiments:
p21 = assay: RT-PCR of p21 mRNA in MCF-7 cells; assay type: cell-based, human; settings: different doses, 24 hours
Protocol: The cell cycle related to p21 mRNA expression was examined by RT-PCR. The total RNAs were isolated from the treated MCF-7 cells and used in the RT reaction. cDNA (1 μl) was used as a template to amplify p21 gene by PCR. GAPDH was used as an internal control. […] In this experiment, MCF-7 cells were treated with different doses of NBM-HD-1 for 24 hours.

cyclinD1, cyclinB1, p21 = assay: RT-PCR of cell cycle regulator genes in C6 glioma cells; assay type: cell-based, rat; settings: GAPDH internal control
Protocol: For the rat C6 glioma cells, the cell cycle related to mRNA expression was examined by RT-PCR. The total RNAs were isolated from the treated C6 cells by using the RNeasy Mini Kit (Qiagen) according to the manufacturer's instructions. The cDNAs were produced from 500 ng of total RNAs using ReverTra-Plus-™ (TOYOBO). The RT product (1 μl) was amplified by PCR with primers to analyze several genes of cell cycle by using GAPDH as an internal control. According to the results of FIG. 3, NBM-HD-1 can modulate the expression of some cell cycle regulators. […] On the contrary, the expression of p21 was increased.

[1] = test system: human giloblastoma DBTRG-05MG cancer cells; assay: Growth and morphology of human giloblastoma DBTRG-05MG cancer cells; assay type: cell-based; settings: 72 hours
Protocol: The human giloblastoma DBTRG-05MG cancer cells were cultured in RPMI medium 1640 (Gibco) supplemented with penicillin G, streptomycin sulphate, 0.5 mM of L-glutamine and 10% fetal bovine serum (FBS; Gibco), 100 mh/L sodium pyruvate (Gibco), and 1% NEAA (Gibco) at 37° C., 5% CO2 and 95% relative humidity. For these experiments, the cells were seeded at a density of 3×10^5 per well of 6-well plates. After 24 hours, the cells were treated with different concentrations of NBM-HD-1 and 4 mM sodium butyrate. The cells were observed and counted after 72 hours. […] In 05MG cells (FIG. 7(A)), after incubation with 2.5 μg/mL (FIG. 7(A)-b), 5 μg/mL (FIG. 7(A)-c) and 10 μg/mL (FIG. 7(A)-d) of NBM-HD-1 for 72 hours, the density of the cells reduced dramatically in comparison with that of the control group (FIG. 7(A)-a). The 05MG cells in the experimental group also changed to become longer than those in the control group.

COc1cc2c(c(OC)c1CCC(C)(C)O)C(=O)C[C@@H](c1ccc(OC)c(OC)c1C/C=C(\C)CCCC(C)(C)O)O2 [NBM-HD-1]
p21 mRNA expression (p21): induced the expression of p21 in a dose-dependent manner
expression of cyclinD1 and cyclinB1 (cyclinD1, cyclinB1, p21): decrease the expression of cyclinD1 and cyclinB1 in a dose-dependent manner
expression of p21 (cyclinD1, cyclinB1, p21): increased
morphology of 05MG cancer cells ([1]; 2.5, 5, 10 μg/mL): change the morphology of 05MG cancer cells
growth of 05MG cancer cells ([1]; NBM-HD-1 2.5, 5, 10 μg/mL or 4 mM sodium butyrate): can inhibit the growth of 05MG cells in a dose-dependent manner
